Assay results: BigSolDB 2.1

Clc1cccnc1Cl
solubility (mole fraction)
Conditions	278.15 K	283.15 K	288.15 K	293.15 K	298.15 K	303.15 K	308.15 K	313.15 K
in isopropanol	–	0.0401	0.0532	0.0687	0.0895	0.117	0.154	0.2
in methanol	0.0181	0.0259	0.0362	0.0505	0.0676	0.0943	0.129	0.178
in methyl acetate	0.146	0.172	0.203	0.237	0.28	0.321	0.374	0.425
in n-butanol	0.0489	0.0607	0.0798	0.0983	0.123	0.155	0.197	0.249
in n-butyl acetate	0.185	0.213	0.246	0.282	0.324	0.372	0.424	0.487
in n-hexane	0.0154	0.0216	0.029	0.0387	0.0516	0.0684	0.0906	0.123
in n-propanol	0.0378	0.0479	0.0606	0.0804	0.1	0.129	0.164	0.211
